# Results from publication doi:10.1101/2021.03.24.436638v1 (biorxiv, 2021).
# Biological target: T1, GlyT2 (wtGlyT2) (Rattus norvegicus, UniProt P58295)
# T1 sequence (P58295 1-799): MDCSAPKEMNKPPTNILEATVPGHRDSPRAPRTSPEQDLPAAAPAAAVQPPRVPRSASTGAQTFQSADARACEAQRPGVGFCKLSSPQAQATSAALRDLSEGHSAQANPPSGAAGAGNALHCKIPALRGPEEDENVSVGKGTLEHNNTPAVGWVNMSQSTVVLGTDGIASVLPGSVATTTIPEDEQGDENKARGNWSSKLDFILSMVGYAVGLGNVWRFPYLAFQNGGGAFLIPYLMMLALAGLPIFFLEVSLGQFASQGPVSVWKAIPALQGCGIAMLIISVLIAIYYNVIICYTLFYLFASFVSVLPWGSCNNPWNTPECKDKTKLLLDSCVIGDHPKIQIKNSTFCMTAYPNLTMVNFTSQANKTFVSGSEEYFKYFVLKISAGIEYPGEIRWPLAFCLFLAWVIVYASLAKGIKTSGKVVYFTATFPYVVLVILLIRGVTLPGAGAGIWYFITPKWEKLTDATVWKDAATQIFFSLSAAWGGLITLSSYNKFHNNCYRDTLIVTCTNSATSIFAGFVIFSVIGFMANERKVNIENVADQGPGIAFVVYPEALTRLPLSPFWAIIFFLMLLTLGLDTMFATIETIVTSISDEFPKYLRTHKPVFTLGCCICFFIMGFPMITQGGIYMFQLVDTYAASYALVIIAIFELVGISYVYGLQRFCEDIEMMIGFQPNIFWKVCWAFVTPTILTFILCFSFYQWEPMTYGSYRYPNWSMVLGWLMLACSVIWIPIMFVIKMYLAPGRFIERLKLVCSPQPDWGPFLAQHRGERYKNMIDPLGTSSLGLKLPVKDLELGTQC
# Assay: [3H]glycine uptake inhibition in transfected COS7 cells
# Type: cell-based
smiles,measurement,value
CCCCC/C=C\C/C=C\C/C=C\C/C=C\CCCC(=O)NCC(=O)O [N-arachidonoyl glycine],IC50,67 ± 23 µM
